Results from publication PMC9274090, “Molecular Modeling of ABHD5 Structure and Ligand Recognition” (Frontiers in Molecular Biosciences, 2022).
pIC50: −log10 of the molar value. Where two headings read alike, the source gives them in different places.

Target: T1, Alpha/beta hydrolase domain-containing 5 (ABHD5, CGI-58) (Mus musculus, UniProt Q9DBL9)
T1 construct: ABHD5 fused to C-terminal fragment of G. princeps luciferase
T1 sequence (Q9DBL9 1-351): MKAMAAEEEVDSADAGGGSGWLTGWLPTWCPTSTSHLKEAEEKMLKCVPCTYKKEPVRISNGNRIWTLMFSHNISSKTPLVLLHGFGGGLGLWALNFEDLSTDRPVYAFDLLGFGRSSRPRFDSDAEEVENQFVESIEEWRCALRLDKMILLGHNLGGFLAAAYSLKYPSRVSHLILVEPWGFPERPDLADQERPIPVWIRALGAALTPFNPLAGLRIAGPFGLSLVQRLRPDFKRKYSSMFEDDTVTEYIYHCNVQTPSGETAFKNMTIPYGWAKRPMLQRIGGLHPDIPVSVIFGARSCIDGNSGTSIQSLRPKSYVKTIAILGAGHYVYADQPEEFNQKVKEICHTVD
T1 sequence (Q8BVZ1 1-463 partner): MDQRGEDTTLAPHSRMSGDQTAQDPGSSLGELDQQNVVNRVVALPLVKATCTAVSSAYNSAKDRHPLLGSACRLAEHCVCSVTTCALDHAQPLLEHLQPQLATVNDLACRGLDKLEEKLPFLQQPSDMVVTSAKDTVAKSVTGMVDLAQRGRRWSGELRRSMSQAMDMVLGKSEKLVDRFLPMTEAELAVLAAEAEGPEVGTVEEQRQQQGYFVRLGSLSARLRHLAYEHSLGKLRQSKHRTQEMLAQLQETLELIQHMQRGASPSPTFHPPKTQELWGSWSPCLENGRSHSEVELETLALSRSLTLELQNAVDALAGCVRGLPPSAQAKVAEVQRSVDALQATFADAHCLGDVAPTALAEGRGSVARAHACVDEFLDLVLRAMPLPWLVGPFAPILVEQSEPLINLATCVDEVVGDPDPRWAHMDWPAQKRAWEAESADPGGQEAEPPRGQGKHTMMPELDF
Assay: split luciferase complementation in cell lysates: ligand-induced dissociation of ABHD5-PLIN5
Format: biochemical

Row | pIC50 (read-out: IC50) | SMILES | pIC50
1 | 4.80 | O=C(Cc1cccc(F)c1)N1CCN(S(=O)(=O)c2ccc3c(c2)OCCO3)CC1 [SR3133, SR-03000003133] | 
2 | 5.05 | COc1ccc(CC(=O)N2CCN(S(=O)(=O)c3ccc4c(c3)OCCCO4)CC2)cc1 [SR3134, SR-03000003134] | 
3 |  | Cc1ccc2c(CC(=O)N3CCN(S(=O)(=O)c4ccc5c(c4)OCCO5)CC3)coc2c1 [SR4559, SR-01000604559] | 5.46
